{"source": "paper PMC8040265", "about": "“A polysaccharide utilization locus from the gut bacterium Dysgonomonas mossii encodes functionally distinct carbohydrate esterases” (The Journal of Biological Chemistry, 2021)", "molecular_target": "T1, DmCE1B_ct (Dysgonomonas mossii, UniProt F8X1N1)", "T1 construct": "gene HMPREF9456_02279; dimer; IMAC purified from E. coli BL21(DE3)", "T1 sequence (F8X1N1 294-656)": "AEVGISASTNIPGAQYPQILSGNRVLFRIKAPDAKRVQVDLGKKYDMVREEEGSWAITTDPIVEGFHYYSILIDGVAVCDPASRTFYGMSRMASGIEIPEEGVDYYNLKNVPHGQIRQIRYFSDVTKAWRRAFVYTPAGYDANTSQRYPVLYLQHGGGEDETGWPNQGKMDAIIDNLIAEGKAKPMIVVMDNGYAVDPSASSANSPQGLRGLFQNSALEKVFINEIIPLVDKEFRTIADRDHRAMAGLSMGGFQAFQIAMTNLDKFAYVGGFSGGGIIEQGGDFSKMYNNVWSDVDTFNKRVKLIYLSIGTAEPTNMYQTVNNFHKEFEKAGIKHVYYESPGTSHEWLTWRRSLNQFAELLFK", "test": "X-ray crystal structure of soaked crystal, […] Å", "assay_type": "binding", "conditions": "crystal soak with saturating MFA, 0.1 M Tris pH 8, 25% w/v PEG 6000; one MFA at edge of active site groove, one at dimer interface", "data": [{"compound": "COC(=O)/C=C/c1ccc(O)c(OC)c1", "note": "[MFA]", "values": [{"measurement": "X-ray crystal structure of soaked crystal, 1.41 Å", "value": "Two MFA molecules were observed and modeled (Fig. S15A)"}]}]}
